Laboratory results from PMC7676998 (Journal of medicinal chemistry, 2019).
“And” between values parts separate entries of the source, which are not always exact repeats. Equal values may be shown once. Read-outs that look alike come from different tables or passages of the source.

Legend:
[1] = target: nociceptin NOP (ORL1) (Homo sapiens, UniProt P41146); experiment: Radioligand binding, nociceptin receptor
[2] = tested on: MOP; conditions: read-out: EC50 at MOP; other study ref 17; cited from earlier work
[3] = target: mu opioid receptor (MOP) (Homo sapiens, UniProt P35372); type: binding
[4] = target: MOP (Homo sapiens, UniProt P35372); type: cell-based
[5] = target: T1, adrenergic α1D receptor (Homo sapiens, UniProt P25100); experiment: Radioligand binding, adrenergic α1D
T1 sequence (P25100 1-572): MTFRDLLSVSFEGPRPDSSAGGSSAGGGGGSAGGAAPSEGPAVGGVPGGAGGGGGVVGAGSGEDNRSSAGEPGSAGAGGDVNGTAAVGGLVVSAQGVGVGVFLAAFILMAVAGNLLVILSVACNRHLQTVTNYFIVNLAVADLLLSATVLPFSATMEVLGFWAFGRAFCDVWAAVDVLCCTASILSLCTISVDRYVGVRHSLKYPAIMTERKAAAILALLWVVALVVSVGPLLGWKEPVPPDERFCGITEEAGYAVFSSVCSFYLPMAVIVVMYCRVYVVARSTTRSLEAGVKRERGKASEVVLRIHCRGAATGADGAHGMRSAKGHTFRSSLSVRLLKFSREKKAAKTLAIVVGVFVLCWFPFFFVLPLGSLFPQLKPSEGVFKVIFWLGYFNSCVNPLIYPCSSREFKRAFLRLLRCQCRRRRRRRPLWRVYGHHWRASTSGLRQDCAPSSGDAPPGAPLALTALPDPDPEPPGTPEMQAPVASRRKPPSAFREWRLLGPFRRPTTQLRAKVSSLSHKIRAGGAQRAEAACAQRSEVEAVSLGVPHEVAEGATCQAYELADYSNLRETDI

[6] = target: T2, adrenergic α1B receptor (Homo sapiens, UniProt P35368); experiment: Radioligand binding, adrenergic α1B
T2 sequence (P35368 1-520): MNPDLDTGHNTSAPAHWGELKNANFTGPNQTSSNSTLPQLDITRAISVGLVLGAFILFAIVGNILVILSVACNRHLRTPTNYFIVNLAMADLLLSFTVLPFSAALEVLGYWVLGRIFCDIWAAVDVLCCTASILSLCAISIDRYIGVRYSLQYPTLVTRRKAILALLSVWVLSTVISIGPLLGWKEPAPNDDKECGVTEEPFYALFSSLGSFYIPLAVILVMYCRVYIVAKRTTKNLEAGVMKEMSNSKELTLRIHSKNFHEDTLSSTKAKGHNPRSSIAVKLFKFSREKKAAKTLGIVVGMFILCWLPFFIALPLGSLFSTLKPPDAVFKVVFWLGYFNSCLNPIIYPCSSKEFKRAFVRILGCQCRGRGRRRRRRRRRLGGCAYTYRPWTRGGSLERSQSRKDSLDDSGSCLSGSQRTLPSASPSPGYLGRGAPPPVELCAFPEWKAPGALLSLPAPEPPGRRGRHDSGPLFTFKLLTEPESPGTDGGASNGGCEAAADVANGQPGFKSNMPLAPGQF

[7] = tested on: Sprague-Dawley rats; conditions: rat, in vivo, iv
[8] = target: T3, adrenergic α1A receptor (Homo sapiens, UniProt P35348); experiment: Radioligand binding, adrenergic α1A
T3 sequence (P35348 1-466): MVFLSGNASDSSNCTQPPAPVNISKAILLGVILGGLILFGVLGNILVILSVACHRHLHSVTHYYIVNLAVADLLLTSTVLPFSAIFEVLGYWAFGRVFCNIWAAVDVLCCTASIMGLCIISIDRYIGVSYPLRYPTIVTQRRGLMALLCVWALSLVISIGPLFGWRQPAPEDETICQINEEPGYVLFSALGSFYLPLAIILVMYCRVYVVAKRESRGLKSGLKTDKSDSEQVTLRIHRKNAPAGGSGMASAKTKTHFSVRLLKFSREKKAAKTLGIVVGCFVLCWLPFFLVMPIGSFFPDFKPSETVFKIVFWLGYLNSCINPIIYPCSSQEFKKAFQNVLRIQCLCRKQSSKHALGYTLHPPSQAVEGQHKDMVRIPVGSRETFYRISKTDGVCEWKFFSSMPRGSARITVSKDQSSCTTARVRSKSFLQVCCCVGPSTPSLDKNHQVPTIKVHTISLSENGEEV

[9] = target: T4, adrenergic α2A receptor (Homo sapiens, UniProt P08913); experiment: Radioligand binding, adrenergic α2A
T4 sequence (P08913 1-465): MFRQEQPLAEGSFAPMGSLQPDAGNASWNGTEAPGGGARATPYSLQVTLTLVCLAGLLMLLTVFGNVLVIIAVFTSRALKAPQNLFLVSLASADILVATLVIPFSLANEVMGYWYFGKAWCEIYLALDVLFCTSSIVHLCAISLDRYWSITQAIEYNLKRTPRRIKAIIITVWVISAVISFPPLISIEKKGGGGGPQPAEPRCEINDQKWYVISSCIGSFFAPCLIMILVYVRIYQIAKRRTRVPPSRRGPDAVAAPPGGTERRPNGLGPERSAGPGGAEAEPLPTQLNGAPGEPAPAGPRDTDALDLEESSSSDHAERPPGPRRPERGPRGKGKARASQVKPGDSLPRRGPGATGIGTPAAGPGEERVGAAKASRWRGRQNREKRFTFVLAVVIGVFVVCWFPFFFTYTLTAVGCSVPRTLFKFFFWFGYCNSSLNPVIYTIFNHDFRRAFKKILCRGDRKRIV

[10] = target: DOP (Homo sapiens, UniProt P41143); type: cell-based
[11] = target: KOP (Homo sapiens, UniProt P41145); experiment: cell-based; type: cell-based
[12] = tested on: human opioid receptors (MOP); conditions: BRET assay; in words ref 14; cited from earlier work
[13] = tested on: rats; conditions: Sprague-Dawley, rat, in vivo
[14] = tested on: Sprague-Dawley rats; conditions: rat, in vivo, iv; remark: listed apart in the source
[15] = tested on: guinea pig ileum; conditions: in words ref 15; cited from earlier work
[16] = target: delta opioid receptor (DOP) (Homo sapiens, UniProt P41143); experiment: Radioligand binding, delta opioid receptor
[17] = target: T5, adrenergic α2B receptor (Homo sapiens, UniProt P18089); type: binding
T5 sequence (P18089 1-450): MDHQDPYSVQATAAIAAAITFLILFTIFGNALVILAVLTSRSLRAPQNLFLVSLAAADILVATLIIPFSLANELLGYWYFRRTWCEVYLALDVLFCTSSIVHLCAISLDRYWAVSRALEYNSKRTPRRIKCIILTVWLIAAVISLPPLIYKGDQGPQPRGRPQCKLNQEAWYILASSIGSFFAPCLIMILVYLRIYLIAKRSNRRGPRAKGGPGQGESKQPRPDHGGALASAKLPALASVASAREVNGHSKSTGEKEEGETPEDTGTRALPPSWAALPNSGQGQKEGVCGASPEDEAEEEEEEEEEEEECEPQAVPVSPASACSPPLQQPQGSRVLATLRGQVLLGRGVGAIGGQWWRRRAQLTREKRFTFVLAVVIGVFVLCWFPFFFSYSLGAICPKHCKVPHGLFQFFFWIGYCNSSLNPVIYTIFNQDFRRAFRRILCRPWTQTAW

[18] = target: T6, α1D adrenergic receptor (Homo sapiens, UniProt P25100); type: cell-based
T6 sequence (P25100 1-572): T1 sequence (P25100 1-572)

[19] = target: T7, α1A adrenergic receptor (Homo sapiens, UniProt P35348); type: cell-based
T7 sequence (P35348 1-466): T3 sequence (P35348 1-466)

[20] = target: T8, α1B adrenergic receptor (Homo sapiens, UniProt P35368); type: cell-based
T8 sequence (P35368 1-520): T2 sequence (P35368 1-520)

[21] = target: T9, α2C adrenergic receptor (Homo sapiens, UniProt P18825); type: cell-based
T9 sequence (P18825 1-462): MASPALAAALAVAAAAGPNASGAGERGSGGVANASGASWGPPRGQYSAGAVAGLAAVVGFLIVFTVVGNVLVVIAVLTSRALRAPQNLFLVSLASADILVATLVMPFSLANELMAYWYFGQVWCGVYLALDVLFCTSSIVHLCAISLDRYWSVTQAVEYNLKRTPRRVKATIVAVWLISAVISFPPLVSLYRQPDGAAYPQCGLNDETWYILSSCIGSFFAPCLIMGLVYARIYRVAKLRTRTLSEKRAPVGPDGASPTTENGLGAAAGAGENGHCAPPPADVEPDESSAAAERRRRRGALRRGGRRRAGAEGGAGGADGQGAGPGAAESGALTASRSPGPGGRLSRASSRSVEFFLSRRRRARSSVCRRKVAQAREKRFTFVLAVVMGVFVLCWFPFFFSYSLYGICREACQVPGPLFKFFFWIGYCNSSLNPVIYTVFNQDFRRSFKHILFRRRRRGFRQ

Sequence of KOP (P41145 whole entry): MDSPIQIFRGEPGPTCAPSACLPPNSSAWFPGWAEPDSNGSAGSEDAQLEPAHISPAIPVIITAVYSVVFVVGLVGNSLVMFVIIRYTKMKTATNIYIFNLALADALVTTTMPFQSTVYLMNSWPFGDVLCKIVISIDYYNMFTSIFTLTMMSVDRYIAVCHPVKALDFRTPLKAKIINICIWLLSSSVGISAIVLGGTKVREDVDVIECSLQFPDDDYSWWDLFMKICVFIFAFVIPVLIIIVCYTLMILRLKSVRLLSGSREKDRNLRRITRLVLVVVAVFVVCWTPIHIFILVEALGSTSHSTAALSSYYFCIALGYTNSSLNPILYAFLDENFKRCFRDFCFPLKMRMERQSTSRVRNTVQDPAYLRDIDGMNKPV
Sequence of delta opioid receptor (DOP) (P41143 whole entry): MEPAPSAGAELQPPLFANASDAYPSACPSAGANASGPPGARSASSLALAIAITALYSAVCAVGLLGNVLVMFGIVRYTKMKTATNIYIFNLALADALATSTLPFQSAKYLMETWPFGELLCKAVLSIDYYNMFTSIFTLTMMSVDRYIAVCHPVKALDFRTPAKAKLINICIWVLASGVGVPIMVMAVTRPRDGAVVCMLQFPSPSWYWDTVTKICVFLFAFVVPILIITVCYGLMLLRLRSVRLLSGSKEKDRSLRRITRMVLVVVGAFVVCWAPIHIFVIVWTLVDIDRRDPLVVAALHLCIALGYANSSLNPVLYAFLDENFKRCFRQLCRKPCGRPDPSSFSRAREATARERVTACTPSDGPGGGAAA
Sequence of mu opioid receptor (MOP) (P35372 whole entry): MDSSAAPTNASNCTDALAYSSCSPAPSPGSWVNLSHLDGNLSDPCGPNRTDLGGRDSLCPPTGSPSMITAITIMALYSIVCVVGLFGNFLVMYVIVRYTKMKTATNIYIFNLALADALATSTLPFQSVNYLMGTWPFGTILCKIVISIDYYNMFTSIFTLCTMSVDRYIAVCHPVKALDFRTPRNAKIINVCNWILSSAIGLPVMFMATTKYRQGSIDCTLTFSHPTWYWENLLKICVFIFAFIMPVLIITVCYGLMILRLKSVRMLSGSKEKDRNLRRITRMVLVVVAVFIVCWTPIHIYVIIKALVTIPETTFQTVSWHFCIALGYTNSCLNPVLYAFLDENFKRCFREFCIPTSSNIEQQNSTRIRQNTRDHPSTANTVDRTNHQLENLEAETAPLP
Sequence of MOP (Homo sapiens, UniProt P35372) (P35372 whole entry): as above
Sequence of nociceptin NOP (ORL1) (P41146 whole entry): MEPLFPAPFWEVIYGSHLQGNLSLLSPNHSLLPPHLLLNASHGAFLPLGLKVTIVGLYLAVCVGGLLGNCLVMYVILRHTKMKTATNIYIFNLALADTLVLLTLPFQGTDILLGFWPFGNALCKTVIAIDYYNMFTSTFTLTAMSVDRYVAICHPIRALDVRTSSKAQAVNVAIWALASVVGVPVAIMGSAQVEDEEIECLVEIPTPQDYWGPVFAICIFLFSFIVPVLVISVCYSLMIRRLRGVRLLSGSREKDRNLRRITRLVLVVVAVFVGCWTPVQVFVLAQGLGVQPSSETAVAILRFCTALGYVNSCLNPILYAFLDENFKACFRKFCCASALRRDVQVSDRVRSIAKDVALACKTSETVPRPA
Sequence of DOP (P41143 whole entry): as the sequence (P41143 whole entry) above

Structure (SMILES) | percent displacement of bound radioligand, nociceptin NOP (ORL1) ([1]; 100 nM test compound) | percent displacement of bound radioligand, nociceptin NOP (ORL1) ([1]; 10,000 nM test compound) | functional effect at MOP [4] | percent displacement of bound radioligand, adrenergic α1D ([5]; 100 nM test compound) | percent displacement of bound radioligand, adrenergic α1D ([5]; 10,000 nM test compound) | percent displacement of bound radioligand, adrenergic α1B ([6]; 100 nM test compound) | percent displacement of bound radioligand, adrenergic α1B ([6]; 10,000 nM test compound) | percent displacement of bound radioligand, adrenergic α1A ([8]; 100 nM test compound) | percent displacement of bound radioligand, adrenergic α1A ([8]; 10,000 nM test compound) | percent displacement of bound radioligand, adrenergic a2A ([9]; 100 nM test compound) | percent displacement of bound radioligand, adrenergic a2A ([9]; 10,000 nM test compound) | functional effect at KOP [11] | percent displacement of bound radioligand, opioid μ ([3]; 100 nM test compound) | percent displacement of bound radioligand, opioid μ ([3]; 10,000 nM test compound) | percent displacement of bound radioligand, opioid δ ([16]; 10,000 nM test compound) | percent displacement of bound radioligand, adrenergic α2B ([17]; 100 nM test compound) | percent displacement of bound radioligand, adrenergic α2B ([17]; 10,000 nM test compound) | further results
CC[C@@H]1CN2CC[C@@]3(O)C(=Nc4cccc(OC)c43)[C@@H]2C[C@@H]1/C(=C\OC)C(=O)OC [7-hydroxymitragynine] | −1.6% | 3.4% | full agonist | −1.9% | 13.5% | 5.9% | −4.8% | 10.1% | 3.5% | −6.7% | −5.4% | competitive antagonist |  |  |  |  |  | EC50 [2]: 53 ± 4 nM; percent displacement of bound radioligand, opioid μ [3]: 81.8% and 100.7%; effect of naltrexone on antinociception ([7]; 0.1 mg/kg): reversed; functional effect at DOP [10]: competitive antagonist; Kb [11]: 115 nM
CC[C@@H]1CN2CCc3c([nH]c4cccc(OC)c34)[C@H]2C[C@@H]1/C(=C\OC)C(=O)OC [speciociliatine] | −14.9% |  | partial agonists |  |  |  |  |  |  |  |  | no agonist or antagonist effects |  |  |  |  |  | agonist / antagonist activity at human opioid receptors [12]: no measurable agonist activity; antinociceptive effects in hot plate test ([7]; 10 mg/kg): had antinociceptive effects; lethality (rats dead / rats tested) [13]: 5/21; change in body temperature (hypothermia) [14]: produced hypothermia; inhibition of electrically induced twitch contraction [15]: maximum inhibition of electrically induced twitch contraction of guinea pig ileum similar to morphine
CC[C@@H]1CN2CCc3c([nH]c4cccc(O)c34)[C@@H]2C[C@@H]1/C(=C\OC)C(=O)OC [9-hydroxycorynantheidine] | −2.9% | 28.9% |  | 12.4% | 66.3% | −4.4% | 29.0% | 16.4% | 62.3% | −10.2% | 20.0% |  | 29.3% | 95.4% | 25.3% | −5.7% | 14.6% | 
CC[C@@H]1CN2CCc3c([nH]c4ccccc34)[C@@H]2C[C@@H]1/C(=C\OC)C(=O)OC [corynantheidine] | −1.3% | 27.0% |  | 73.5% | 101.2% | 19.6% | 91.0% | 45.9% | 100.5% | 27.2% | 95.1% |  | 39.6% | 96.8% | 31.4% | 8.5% | 79.9% | fold higher affinity at the α−1D receptor than mitragynine ([5]; ratio of Ki versus mitragynine): 131 fold; percent displacement of bound radioligand, opioid δ ([16]; 100 nM test compound): 8.6%
CC[C@@H]1CN2CCc3c([nH]c4cccc(OC)c34)[C@@H]2C[C@@H]1/C(=C\OC)C(=O)OC [mitragynine] |  |  | partial agonists |  |  | −12.5% |  |  |  |  |  |  |  |  |  |  |  | agonist effect at α1D [18]: partial agonist; antagonist effect at α−1D [18]: competitive antagonist effects; agonist effect at α1A [19]: partial agonist; antagonist effect at α−1A [19]: competitive antagonist effects; antagonist effect at α−1B [20]: competitive antagonist effects; antagonist effect at α−2C [21]: competitive antagonist effects
